# Measured values from patent US20210396743A1 (priority 2020, published 2021).
# “Also recorded” adds a separate entry of the source. Read-outs that look alike come from different tables or passages of the source. Residues, ends and D or L forms follow the SMILES beside them.
# Tests used:
# [1] = biological target: T1, SdeA181-1000 (Legionella pneumophila subsp. pneumophila, UniProt Q5ZTK4); type: biochemical, L. pneumophila
# [2] = biological target: SdeA (Legionella pneumophila subsp. pneumophila, UniProt Q5ZTK4); conditions: cited from earlier work
# Chain of SdeA (Legionella pneumophila subsp. pneumophila, UniProt Q5ZTK4) (Q5ZTK4 whole entry, looked up): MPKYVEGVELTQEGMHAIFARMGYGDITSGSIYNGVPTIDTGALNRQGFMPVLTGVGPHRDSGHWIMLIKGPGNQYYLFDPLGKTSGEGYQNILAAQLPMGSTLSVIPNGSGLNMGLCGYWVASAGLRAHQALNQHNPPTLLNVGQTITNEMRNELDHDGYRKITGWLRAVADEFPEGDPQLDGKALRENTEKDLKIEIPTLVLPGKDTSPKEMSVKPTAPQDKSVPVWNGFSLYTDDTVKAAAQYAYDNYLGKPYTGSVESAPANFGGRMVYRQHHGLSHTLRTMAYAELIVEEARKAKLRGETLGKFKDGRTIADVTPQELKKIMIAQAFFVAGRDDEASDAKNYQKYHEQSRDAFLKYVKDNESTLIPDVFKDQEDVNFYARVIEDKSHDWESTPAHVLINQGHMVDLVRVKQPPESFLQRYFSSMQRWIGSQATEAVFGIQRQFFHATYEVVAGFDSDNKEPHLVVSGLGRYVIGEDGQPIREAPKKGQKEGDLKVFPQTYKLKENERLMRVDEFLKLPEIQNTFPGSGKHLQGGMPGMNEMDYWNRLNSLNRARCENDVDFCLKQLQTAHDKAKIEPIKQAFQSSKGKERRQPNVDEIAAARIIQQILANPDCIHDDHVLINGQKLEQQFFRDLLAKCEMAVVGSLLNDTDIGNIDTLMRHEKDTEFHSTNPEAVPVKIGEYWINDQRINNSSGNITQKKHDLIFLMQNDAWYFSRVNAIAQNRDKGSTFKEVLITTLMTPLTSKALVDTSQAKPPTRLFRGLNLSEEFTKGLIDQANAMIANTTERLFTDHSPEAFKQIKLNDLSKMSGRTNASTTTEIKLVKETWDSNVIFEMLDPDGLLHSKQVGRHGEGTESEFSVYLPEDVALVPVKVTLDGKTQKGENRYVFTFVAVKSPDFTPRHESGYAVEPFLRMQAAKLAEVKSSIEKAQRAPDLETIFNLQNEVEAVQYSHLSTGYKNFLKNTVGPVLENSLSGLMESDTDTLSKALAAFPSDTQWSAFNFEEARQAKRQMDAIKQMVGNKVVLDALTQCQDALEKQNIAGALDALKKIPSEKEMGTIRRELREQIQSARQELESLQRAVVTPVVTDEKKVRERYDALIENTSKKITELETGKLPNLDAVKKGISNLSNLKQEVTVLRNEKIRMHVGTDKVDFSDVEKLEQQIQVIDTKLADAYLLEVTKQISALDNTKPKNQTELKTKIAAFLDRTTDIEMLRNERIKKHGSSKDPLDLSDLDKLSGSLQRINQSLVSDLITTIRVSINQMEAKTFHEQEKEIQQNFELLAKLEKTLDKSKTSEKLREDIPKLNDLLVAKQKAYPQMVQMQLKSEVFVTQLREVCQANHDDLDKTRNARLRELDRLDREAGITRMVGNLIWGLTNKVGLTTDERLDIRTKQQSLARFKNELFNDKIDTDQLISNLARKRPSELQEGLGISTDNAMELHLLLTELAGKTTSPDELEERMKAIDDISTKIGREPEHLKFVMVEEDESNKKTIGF
# [3] = test system: SdeA; type: biochemical, L. pneumophila; conditions: 100 μM analogue, 100 μM ubiquitin, 0.5 μM enzyme, emission 410 nm
# [4] = biological target: T1, SdeA181-1000; type: biochemical, L. pneumophila; remark: listed apart in the source
# [5] = biological target: T1, SdeA181-1000; type: biochemical, L. pneumophila; remark: listed apart in the source
# T1 sequence (Q5ZTK4 181-1000 limits assumed): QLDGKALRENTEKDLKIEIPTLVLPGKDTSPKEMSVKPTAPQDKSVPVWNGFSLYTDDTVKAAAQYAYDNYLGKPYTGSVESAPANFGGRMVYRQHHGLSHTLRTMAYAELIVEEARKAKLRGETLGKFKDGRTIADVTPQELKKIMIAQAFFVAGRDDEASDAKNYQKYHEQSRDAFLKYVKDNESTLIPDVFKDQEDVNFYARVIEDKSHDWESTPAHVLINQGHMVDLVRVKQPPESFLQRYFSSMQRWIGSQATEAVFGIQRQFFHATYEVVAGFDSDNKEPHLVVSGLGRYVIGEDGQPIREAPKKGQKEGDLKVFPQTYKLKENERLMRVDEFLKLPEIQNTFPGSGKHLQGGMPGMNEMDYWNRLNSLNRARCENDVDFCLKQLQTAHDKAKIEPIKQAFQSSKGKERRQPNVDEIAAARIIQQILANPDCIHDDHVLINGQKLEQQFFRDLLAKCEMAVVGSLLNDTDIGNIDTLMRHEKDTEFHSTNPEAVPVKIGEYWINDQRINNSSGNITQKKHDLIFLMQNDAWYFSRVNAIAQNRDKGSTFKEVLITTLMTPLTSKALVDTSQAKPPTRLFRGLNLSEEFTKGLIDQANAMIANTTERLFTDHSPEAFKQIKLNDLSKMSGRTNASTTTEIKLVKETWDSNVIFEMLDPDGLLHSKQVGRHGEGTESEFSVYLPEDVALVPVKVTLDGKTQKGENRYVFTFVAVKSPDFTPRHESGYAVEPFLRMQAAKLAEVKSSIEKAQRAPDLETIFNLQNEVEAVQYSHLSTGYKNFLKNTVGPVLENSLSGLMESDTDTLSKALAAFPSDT
compound,measurement,setting,value
Nc1ncnc2c1ncn2[C@@H]1O[C@H](COP(=O)(O)OP(=O)(O)OC[C@H]2OC(O)[C@H](O)[C@@H]2O)[C@@H](O)[C@H]1O (some centres unmarked) [ADP-ribose],inhibition of peptide ubiquitination,[1],inhibition of peptide ubiquitination; also recorded: impairment of peptide ubiquitination
"Nc1ncnc2c1ncn2[C@@H]1O[C@H](COP(=O)(O)O)[C@@H](O)[C@H]1O [AMP, adenosine monophosphate]",inhibition of peptide ubiquitination,[1],inhibition of peptide ubiquitination; also recorded: impairment of peptide ubiquitination
same,inhibitor of SdeA-catalyzed ubiquitination (previous study),[2],weak inhibitor
NC(=O)c1ccc[n+]([C@@H]2O[C@H](COP(=O)(O)OP(=O)([O-])OC[C@H]3O[C@@H](c4snc5c(N)ncnc45)C(O)C3O)C(O)C2O)c1 (some centres unmarked) [N^tzAD^+],fluorescence increase on incubation with SdeA and Ub,[3]; listed as NtzAD+,lower fold increase in fluorescence intensity
CSCC[C@H](NC(=O)c1ccc(-c2c3ccc(=O)cc-3oc3cc(O)ccc23)c(C(=O)O)c1)C(=O)N[C@@H](CO)C(=O)N[C@@H](CO)C(=O)N[C@@H](CCSC)C(=O)N[C@@H](CC(N)=O)C(=O)N1CCC[C@H]1C(=O)N[C@@H](CCC(=O)O)C(=O)N[C@@H](Cc1ccc(O)cc1)C(=O)N[C@@H](CC(=O)O)C(N)=O [peptide] (HELM PEPTIDE1{[O=C(O)c1cc(C(=O)[*:2])ccc1-c1c2ccc(=O)cc-2oc2cc(O)ccc12].M.S.S.M.N.P.E.Y.D.[am]}$$$$V2.0),in-gel fluorescence of ubiquitinated peptide (SDS-PAGE),[4],presence of a fluorescent band around 10 kDa
same,ubiquitination of peptide by SdeA (fluorescence polarization),[5],significant increase in FP
same,Km,[5]; read-out: apparent KM,~80 µM
"NC(=O)c1ccc[n+]([C@@H]2O[C@H](COP(=O)([O-])OP(=O)([O-])OC[C@H]3O[C@@H](n4cnc5c4nc[n+]4cc[nH]c54)C(O)[C@H]3O)[C@H](O)C2O)c1 (some centres unmarked) [εNAD^+, nicotinamide 1,N6-ethenoadenine dinucleotide]",fluorescence increase on incubation with SdeA and Ub,[3],increase in fluorescence emission at 410 nm
